Activity calls are given as the source filed them. The rule behind the calls is not given here.
How the values were obtained:
HeLa = assay: Antiproliferative activity against human HeLa cells assessed as reduction in cell viability incubated for 72 hrs by SRB assay; format: functional, cell-based
SW480 = assay: Antiproliferative activity against human SW480 cells assessed as reduction in cell viability incubated for 72 hrs by SRB assay; format: functional, cell-based; conditions: SW480, 72 h
HCT-116 = assay: Antiproliferative activity against human HCT-116 cells assessed as reduction in cell viability incubated for 72 hrs by SRB assay; format: functional, cell-based; conditions: HCT-116, 72 h
K562 = assay: Antiproliferative activity against human K562 cells assessed as reduction in cell viability incubated for 48 hrs by MTT assay; format: functional, cell-based; conditions: K562, 48 h
[1] = target: DNA topoisomerase 2-alpha (Homo sapiens) (UniProt P11388); assay: Inhibition of recombinant human topoisomerase 2 alpha-mediated relaxation of supercoiled pBR322 DNA at 200 uM incubated for 30 mins by ethidium bromide staining based agarose gel electrophoresis method
HepG2 = assay: Antiproliferative activity against human HepG2 cells assessed as reduction in cell viability incubated for 48 hrs by MTT assay; format: functional, cell-based; conditions: HepG2, 48 h

DNA topoisomerase 2-alpha (Homo sapiens), sequence (P11388 whole entry): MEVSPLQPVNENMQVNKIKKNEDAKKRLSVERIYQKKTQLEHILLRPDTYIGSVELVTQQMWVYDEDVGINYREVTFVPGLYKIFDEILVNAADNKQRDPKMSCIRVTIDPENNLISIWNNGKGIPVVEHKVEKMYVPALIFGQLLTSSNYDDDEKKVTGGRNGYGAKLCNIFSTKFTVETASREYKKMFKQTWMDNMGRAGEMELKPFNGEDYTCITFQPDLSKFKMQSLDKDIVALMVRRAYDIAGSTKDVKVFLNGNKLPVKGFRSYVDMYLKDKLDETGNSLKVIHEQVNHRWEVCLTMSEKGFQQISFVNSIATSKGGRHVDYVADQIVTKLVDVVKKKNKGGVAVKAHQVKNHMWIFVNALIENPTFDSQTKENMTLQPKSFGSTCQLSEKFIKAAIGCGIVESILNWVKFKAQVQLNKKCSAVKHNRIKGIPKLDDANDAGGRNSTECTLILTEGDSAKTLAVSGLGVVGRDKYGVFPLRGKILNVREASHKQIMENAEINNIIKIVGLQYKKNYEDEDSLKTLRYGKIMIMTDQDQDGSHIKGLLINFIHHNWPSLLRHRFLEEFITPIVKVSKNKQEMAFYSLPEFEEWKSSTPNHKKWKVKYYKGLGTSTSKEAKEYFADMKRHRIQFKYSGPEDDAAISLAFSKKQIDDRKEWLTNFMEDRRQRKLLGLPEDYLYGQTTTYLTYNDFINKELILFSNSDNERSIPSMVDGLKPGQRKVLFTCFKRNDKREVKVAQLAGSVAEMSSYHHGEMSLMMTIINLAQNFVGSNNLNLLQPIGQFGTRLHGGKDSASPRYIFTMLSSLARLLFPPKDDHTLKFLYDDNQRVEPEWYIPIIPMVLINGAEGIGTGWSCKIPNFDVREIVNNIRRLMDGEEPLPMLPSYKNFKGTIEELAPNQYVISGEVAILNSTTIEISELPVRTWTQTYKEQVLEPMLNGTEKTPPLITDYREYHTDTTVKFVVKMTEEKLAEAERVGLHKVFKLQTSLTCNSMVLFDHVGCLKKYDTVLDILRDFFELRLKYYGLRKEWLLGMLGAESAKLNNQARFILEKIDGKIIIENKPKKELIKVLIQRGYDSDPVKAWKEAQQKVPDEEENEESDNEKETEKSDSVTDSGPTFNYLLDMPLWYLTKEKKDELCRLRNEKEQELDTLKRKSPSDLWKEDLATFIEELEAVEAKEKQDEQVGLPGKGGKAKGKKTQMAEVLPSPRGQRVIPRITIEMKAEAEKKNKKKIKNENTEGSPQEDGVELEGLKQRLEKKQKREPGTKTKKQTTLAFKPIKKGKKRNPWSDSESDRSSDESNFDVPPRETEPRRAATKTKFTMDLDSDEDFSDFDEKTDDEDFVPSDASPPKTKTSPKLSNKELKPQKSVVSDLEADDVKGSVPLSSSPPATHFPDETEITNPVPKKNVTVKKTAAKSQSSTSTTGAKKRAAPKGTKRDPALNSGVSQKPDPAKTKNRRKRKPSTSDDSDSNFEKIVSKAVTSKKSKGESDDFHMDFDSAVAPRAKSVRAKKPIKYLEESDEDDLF

Row | Structure (SMILES) | IC50 (HeLa) [µM] | IC50 (SW480) [µM] | IC50 (HCT-116) [µM] | IC50 (K562) [µM] | inhibition [1] | IC50 (HepG2) [µM]
1 | O=c1c2cc(O)ccc2[nH]c2c([N+](=O)[O-])ccc(NCc3ccc(F)cc3)c12 | > 20 | > 20 | > 20 |  |  | 
2 | COc1ccc2[nH]c3c([N+](=O)[O-])ccc(NCCc4ccc(O)c(O)c4)c3c(=O)c2c1 | > 20 | 6.5 | > 20 |  |  | 
3 | O=C1c2c(O)ccc(O)c2C(=O)c2c(NCCNCCO)ccc(NCCNCCO)c21 [MITOXANTRONE] |  |  |  | 2.35 |  | 15.3
4 | COc1ccc2[nH]c3c(N)ccc(Nc4ccc(-n5cncn5)cc4)c3c(=O)c2c1 | 16.8 | 15.7 | > 20 |  | Active | 
5 | CCCCCCCCCCCCOc1ccc(OCCCCNCCCCNCCCNCCC)c2c1C(=O)c1ccccc1C2=O |  |  |  |  |  | 8.8
6 | O=c1c2cc(O)ccc2[nH]c2c([N+](=O)[O-])ccc(NCc3ccco3)c12 | 12.2 | 15.5 | > 20 |  | Active | 
7 | COc1ccc2[nH]c3c([N+](=O)[O-])ccc(NCc4cccs4)c3c(=O)c2c1 | > 20 | > 20 | > 20 |  |  | 
8 | COc1ccc2[nH]c3c([N+](=O)[O-])ccc(NCCc4cccc(C(F)(F)F)c4)c3c(=O)c2c1 | 12.4 | 12.4 | > 20 |  |  | 
9 | O=c1c2cc(O)ccc2[nH]c2c([N+](=O)[O-])ccc(Nc3ccc(N4CCOCC4)cc3)c12 | 6.4 | 2.4 | 5.9 |  |  | 
10 | COc1ccc(CCNc2ccc([N+](=O)[O-])c3[nH]c4ccc(F)cc4c(=O)c23)cc1OC | 4.5 | 8.8 | > 20 |  |  | 
11 | COc1ccc2[nH]c3c(N)ccc(NCCc4ccc(O)c(O)c4)c3c(=O)c2c1 | > 50 | > 50 | > 50 |  |  | 
12 | COc1ccc2[nH]c3c(N)ccc(Nc4ccc(OC)c(OC)c4)c3c(=O)c2c1 | 6.2 | 8.6 | 4.6 |  |  | 
13 | COc1ccc2[nH]c3c(N)ccc(Nc4ccc(N5CCOCC5)cc4)c3c(=O)c2c1 | 17.5 | 3.8 | 17.8 |  |  | 
14 | COc1ccc(CCNc2ccc(N)c3[nH]c4ccc(O)cc4c(=O)c23)cc1OC | 17.2 | > 50 | > 50 |  |  | 
15 | COc1ccc2[nH]c3c([N+](=O)[O-])ccc(NCc4ccc(O)cc4)c3c(=O)c2c1 | > 20 | > 20 | 12.4 |  |  | 
16 | CCN(CC)CCNc1ccc2ncn3c4ccc(O)cc4c(=O)c1c23 [C-1311] |  | 0.48 | 0.3 |  |  | 
17 | COc1ccc2[nH]c3c([N+](=O)[O-])ccc(Nc4ccc(N5CCOCC5)cc4)c3c(=O)c2c1 | > 20 | > 20 | > 20 |  |  | 
18 | COc1ccc2[nH]c3c(N)ccc(NCCc4cccc(C(F)(F)F)c4)c3c(=O)c2c1 | > 20 | > 20 | > 20 |  |  | 
19 | COc1ccc(Nc2ccc([N+](=O)[O-])c3[nH]c4ccc(O)cc4c(=O)c23)cc1 | > 20 | > 20 | > 20 |  | Active | 
20 | O=c1c2cc(O)ccc2[nH]c2c([N+](=O)[O-])ccc(NCc3ccsc3)c12 | > 20 | > 20 | > 20 |  | Active | 

Now from value to molecule, other results behind:

Row | IC50 (HeLa) [µM] | IC50 (SW480) [µM] | IC50 (HCT-116) [µM] | IC50 (K562) [µM] | inhibition [1] | Structure (SMILES) | IC50 (HepG2) [µM]
21 |  |  |  | 1.82 |  | CCCCCCCCCCCOc1ccc(OCc2ccc(C(=O)N[C@@H](Cc3ccccc3)C(=O)O)cc2)c2c1C(=O)c1ccccc1C2=O | 
22 | > 20 | > 20 | > 20 |  | inactive | O=c1c2cc(O)ccc2[nH]c2c([N+](=O)[O-])ccc(NCc3cccs3)c12 | 
23 | > 20 | > 20 | > 20 |  | Active | O=c1c2cc(O)ccc2[nH]c2c([N+](=O)[O-])ccc(Nc3ccc(O)cc3)c12 | 
24 | > 20 | > 20 | > 20 |  | inactive | COc1ccc(Nc2ccc([N+](=O)[O-])c3[nH]c4ccc(O)cc4c(=O)c23)cc1OC | 
25 | 10.5 | > 20 | > 20 |  |  | O=c1c2cc(F)ccc2[nH]c2c([N+](=O)[O-])ccc(NCc3ccc(O)cc3)c12 | 
26 | 1.7 | 8.8 | 5.7 |  | Active | COc1ccc2[nH]c3c([N+](=O)[O-])ccc(Nc4ccc(CN5CCCCC5)cc4)c3c(=O)c2c1 | 
27 | 7.6 | 2.3 | 3.9 |  | Active | O=c1c2cc(O)ccc2[nH]c2c([N+](=O)[O-])ccc(Nc3ccc(Cn4cncn4)cc3)c12 | 
28 | 0.6 | 0.3 | 0.4 |  | Active | CN1CCN(Cc2ccc(Nc3ccc([N+](=O)[O-])c4[nH]c5ccc(O)cc5c(=O)c34)cc2)CC1 | 
29 | > 20 | > 20 | > 20 |  | Active | COc1cccc(Nc2ccc([N+](=O)[O-])c3[nH]c4ccc(O)cc4c(=O)c23)c1 | 
30 | 7.5 | 17.1 | 11.8 |  | Active | COc1ccc2[nH]c3c([N+](=O)[O-])ccc(Nc4ccc(O)cc4)c3c(=O)c2c1 | 
31 | 1.1 | 2.3 | 2.5 |  | Active | O=c1c2cc(O)ccc2[nH]c2c([N+](=O)[O-])ccc(Nc3ccc(CN4CCCCC4)cc3)c12 | 
32 | > 20 | > 20 | > 20 |  |  | COc1ccc(CCNc2ccc([N+](=O)[O-])c3[nH]c4ccc(O)cc4c(=O)c23)cc1OC | 
33 | > 20 | > 20 | > 20 |  |  | COc1ccc2[nH]c3c([N+](=O)[O-])ccc(NCc4cccnc4)c3c(=O)c2c1 | 
34 | 1.2 | 1.2 | 0.7 |  | Active | CN1CCN(CCNc2ccc([N+](=O)[O-])c3[nH]c4ccc(O)cc4c(=O)c23)CC1 | 
35 | 12.3 | 11.3 | 17.5 |  |  | COc1ccc(CCNc2ccc(N)c3[nH]c4ccc(F)cc4c(=O)c23)cc1OC | 
36 |  |  |  | 0.77 |  | CCCCCCCCCCCOc1ccc(OCc2ccc(C(=O)N[C@@H](CCC(=O)O)C(=O)O)cc2)c2c1C(=O)c1ccccc1C2=O | 
37 | 7.6 | 11.7 | > 20 |  |  | O=c1c2cc(O)ccc2[nH]c2c([N+](=O)[O-])ccc(NCCc3cccc(C(F)(F)F)c3)c12 | 
38 | > 12.5 | > 25 | > 12.5 |  |  | COc1ccc(Nc2ccc(N)c3[nH]c4ccc(OC)cc4c(=O)c23)cc1 | 
39 | > 20 | > 20 | > 20 |  | inactive | O=c1c2cc(O)ccc2[nH]c2c([N+](=O)[O-])ccc(NCc3cccnc3)c12 | 
40 | 4.8 | 1.1 | 1.5 |  | Active | CN1CCN(c2ccc(Nc3ccc([N+](=O)[O-])c4[nH]c5ccc(O)cc5c(=O)c34)cc2)CC1 | 
41 | > 20 | > 20 | > 20 |  |  | COc1ccc2[nH]c3c([N+](=O)[O-])ccc(Nc4ccc(N5CCN(C)CC5)cc4)c3c(=O)c2c1 | 
42 | > 20 | > 20 | > 20 |  | Active | COc1cc(Nc2ccc([N+](=O)[O-])c3[nH]c4ccc(O)cc4c(=O)c23)cc(OC)c1 | 
43 | > 20 | > 20 | > 50 |  |  | Nc1ccc(NCCc2cccc(C(F)(F)F)c2)c2c(=O)c3cc(O)ccc3[nH]c12 | 
44 | > 20 | > 20 | > 20 |  |  | COc1ccc2[nH]c3c([N+](=O)[O-])ccc(NCc4ccco4)c3c(=O)c2c1 | 
45 | 8.8 | 15.6 | 8.8 |  |  | COc1ccc2[nH]c3c(N)ccc(NCCc4ccc(OC)c(OC)c4)c3c(=O)c2c1 | 
46 | 12.8 | 19.7 | > 20 |  |  | COc1ccc2[nH]c3c([N+](=O)[O-])ccc(NCCc4ccc(OC)c(OC)c4)c3c(=O)c2c1 | 
47 | > 20 | > 20 | > 20 |  |  | O=c1c2cc(O)ccc2[nH]c2c([N+](=O)[O-])ccc(NCc3ccc(O)cc3)c12 | 
48 | 0.9 | 2 | 1 |  | Active | COc1ccc2[nH]c3c([N+](=O)[O-])ccc(NCCCN4CCN(C)CC4)c3c(=O)c2c1 | 
49 |  | 0.6 | 1.7 | 10.8 | Active | COc1cc([C@@H]2c3cc4c(cc3[C@@H](O[C@@H]3O[C@@H]5CO[C@@H](C)O[C@H]5[C@H](O)[C@H]3O)[C@H]3COC(=O)[C@H]23)OCO4)cc(OC)c1O [ETOPOSIDE] | 
